# Experimental data: ChEMBL document CHEMBL1154699, “Synthesis of aryl phosphates based on pyrimidine and triazine scaffolds” (Eur J Med Chem, 2010)
# Calls of active or inactive are those of the source. No cut-off for these calls is given here.
# How the values were obtained:
# [1] = target: T1, Growth factor receptor-bound protein 2 (Homo sapiens, UniProt P62993); experiment: Displacement of biotin-Ahx-PSpYVNVQN peptide from GST fused Grb2 SH2 domain by ELISA
# [2] = target: T1, Growth factor receptor-bound protein 2; experiment: Inhibition of Grb2 by ELISA
# Target sequence in this assay (P62993 whole entry, the tested form may be a part): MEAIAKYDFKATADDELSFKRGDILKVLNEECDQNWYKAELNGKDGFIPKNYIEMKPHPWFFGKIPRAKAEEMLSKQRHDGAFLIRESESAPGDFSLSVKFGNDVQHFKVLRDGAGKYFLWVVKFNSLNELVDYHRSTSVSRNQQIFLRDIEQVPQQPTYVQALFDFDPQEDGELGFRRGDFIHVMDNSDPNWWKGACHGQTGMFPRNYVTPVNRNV
Structure (SMILES),Activity [1],further results
NC(=O)CNc1nc(Nc2ccc(OP(=O)(O)O)cc2)nc(-c2ccccc2Oc2ccc(OP(=O)(O)O)cc2)n1,,IC50 [1]: 265 µM
Cc1cc(-c2cccc(Oc3ccc(OP(=O)(O)O)cc3)c2)nc(Nc2ccc(-c3nn[nH]n3)cc2)n1,inactive,
NC(=O)CNc1nc(Nc2ccc(OP(=O)(O)O)cc2)nc(-c2cccc(Oc3ccc(OP(=O)(O)O)cc3)c2)n1,inactive,
Cc1ccc(OC(C)(C)C(=O)N[C@@H](Cc2ccc(OP(=O)(O)O)cc2)C(=O)N[C@@](C)(Cc2ccc(OP(=O)(O)O)cc2)C(=O)N[C@@H](CC(N)=O)C(N)=O)c(/N=N/c2ccccc2)c1,,IC50 [2]: 0.011 µM
